Laboratory results reported in patent publication US5516756A, “Aza cyclohexapeptide compounds” (Merck & Co., Inc., priority 1994, dated 1996).
Values after ≈ are worked out from the molar mass of the structure shown.

Key:
Candida albicans MY 1055 = assay: In vivo effectiveness: kidney CFU in mice infected I.V. with Candida albicans; settings: 0.07 mg/kg i.p. twice daily for four consecutive days; female DBA/2 mice; CFU per gram of kidneys after seven days
Procedure: The in vivo effectiveness of the compounds against fungi may be seen in the following assay.
Growth from an overnight SDA culture of Candida albicans MY 1055 was suspended in sterile saline and the cell concentration determined by hemacytometer count and the cell suspension adjusted to 3.75×10^5 cells/ml. Then 0.2 milliliter of this suspension was administered I.V. in the tail vein of mice so that the final inoculum is 7.5×10^4 cells/mouse.
The assay was then carried out by administering aqueous solutions of Compound I at various concentrations intraperitoneally (I.P.), twice daily (b.i.d.) for four consecutive days to 18 to 20 gram female DB A/2 mice, which previously had been infected with Candida albicans (MY 1055) in the manner described above. Distilled water was administered I.P. to C. albicans challenged mice as controls. After seven days, the mice were sacrificed by carbon dioxide gas, paired kidneys were removed aseptically and placed in sterile polyethylene bags containing 5 milliliters of sterile saline. The kidneys were homogenized in the bags, serially diluted in sterile saline and aliquots spread on the surface of SDA plates. The plates were incubated at 35° C. for 48 hours and yeast colonies enumerated for determination of colony forming units (CFU) per gram of kidneys. […]

[1] = tested on: Candida parapsilosis (MY 1010); assay type: cell-based; settings: MY 1010, 24 h
Procedure: (§1) The compounds of the present invention are active against many fungi and particularly against Candida species. The antifungal properties may be illustrated with the minimum fungicidal concentration (MFC) determination against certain Candida organisms in a microbroth dilution assay carded out in a Yeast Nitrogen Base (DIFCO) medium with 1% dextrose (YNBD).
(§2) In a representative assay, compounds were solubilized in 100% dimethyl sulfoxide (DMSO) at an initial concentration of 5 mg/ml. Once dissolved, the drug stock was brought to a concentration of 512 μg/ml by dilution in water such that the final DMSO concentration was about 10 percent. The solution was then dispensed via a multichannel pipetter into the first column of a 96-well plate (each well containing 0.075 ml of YNBD), resulting in a drug concentration of 256 μg/ml. Compounds in the first column were diluted 2-fold across the rows yielding final drug concentration ranging from 256 μg/ml to 0.12 μg/ml.
(§3) Four-hour broth cultures of organisms to be tested were adjusted using a spectrophotometer at 600 nm to equal a 0.5 McFarland Standard. This suspension was diluted 1:100 in YNBD to yield a cell concentration of 1-5×10^4 colony forming units (CFU)/ml. Aliquots of the suspension (0.075 ml) were inoculated into each well of the microtiter plate resulting in a final cell inoculum of 5-25×10^3 CFU/ml and final drug concentrations ranging from 128 μg/ml to 0.06 μg/ml. Each assay included one row for drug-free control wells and one row for cell-free control wells.
(§4) After 24 hours of incubation, the microtiter plates were shaken gently on a shaker to resuspend the cells. The MIC-2000 inoculator was used to transfer a 1.5 microliter sample from each well of the 96-well microtiter plate to a single reservoir inoculum plate containing Sabouraud dextrose agar (SDA). The inoculated SDA plates were incubated for 24 hours at 35° C. and then read for minimum fungicidal concentration (MFC). MFC is defined as the lowest concentration of drug showing no growth or less than 4 colonies per spot. […]

[2] = tested on: Candida albicans (MY 1055); assay type: cell-based; settings: MY 1055, 24 h
Procedure: as §1, §2, §3, §4

[3] = tested on: Candida tropicalis (MY 1012); assay type: cell-based; settings: MY 1012, 24 h
Procedure: as §1, §2, §3, §4

## CCC(C)CC(C)CCCCCCCCC(=O)N[C@H]1C[C@@H](O)[C@@H](NC(=O)[C@@H](N)CN)NC(=O)[C@@H]2[C@@H](O)CCN2C(=O)[C@H]([C@H](O)CCN)NC(=O)[C@H]([C@H](O)[C@@H](O)c2ccc(O)cc2)NC(=O)[C@@H]2C[C@@H](O)CN2C(=O)[C@H]([C@@H](C)O)NC1=O (stereo partly shown) [Compound I]
Candida albicans MY 1055
  reduction of recoverable Candida CFUs: greater than 99%
[1]
  minimum fungicidal concentration (MFC): 0.5 µg/mL (≈ 0.44 µM)
[2]
  minimum fungicidal concentration (MFC): 1 µg/mL (≈ 0.88 µM)
[3]
  minimum fungicidal concentration (MFC): 1 µg/mL (≈ 0.88 µM)
